Results from patent US7351700B2, “Aminomethylpyrimidines as allosteric enhancers of the GABAB receptors” (Hoffmann-La Roche Inc., priority 2004, dated 2008).

Key:
[1] = PO, cited from earlier work
[2] = rats; cited from earlier work
human GABABR1aR2a = target: T1, human GABABR1aR2a (Homo sapiens, UniProt O75899+Q9UBS5); assay: Intracellular Ca2+ mobilization assay (FLIPR) in CHO-GABABR1aR2a-Gα16 cell; type: cell-based; details: for GABA shift Log [EC50(GABA + 10 μM cp)/EC50(GABA alone)]: 10 μM enhancer applied 15 min before GABA (0.0003-30 μM); for Emax: enhancer 0.001-30 μM in presence of 10 nM GABA (EC10), normalized to 10 μM GABA = 100%, 10 nM GABA = 0%, read-out: Emax (%) at 10 nM GABA alone = 0% 10 μM GABA alone = 100%; for EC50: enhancer concentration-response in presence of 10 nM GABA
T1 construct: expressed in transfected cells
T1 sequence (Q9UBS5 15-961 limits assumed): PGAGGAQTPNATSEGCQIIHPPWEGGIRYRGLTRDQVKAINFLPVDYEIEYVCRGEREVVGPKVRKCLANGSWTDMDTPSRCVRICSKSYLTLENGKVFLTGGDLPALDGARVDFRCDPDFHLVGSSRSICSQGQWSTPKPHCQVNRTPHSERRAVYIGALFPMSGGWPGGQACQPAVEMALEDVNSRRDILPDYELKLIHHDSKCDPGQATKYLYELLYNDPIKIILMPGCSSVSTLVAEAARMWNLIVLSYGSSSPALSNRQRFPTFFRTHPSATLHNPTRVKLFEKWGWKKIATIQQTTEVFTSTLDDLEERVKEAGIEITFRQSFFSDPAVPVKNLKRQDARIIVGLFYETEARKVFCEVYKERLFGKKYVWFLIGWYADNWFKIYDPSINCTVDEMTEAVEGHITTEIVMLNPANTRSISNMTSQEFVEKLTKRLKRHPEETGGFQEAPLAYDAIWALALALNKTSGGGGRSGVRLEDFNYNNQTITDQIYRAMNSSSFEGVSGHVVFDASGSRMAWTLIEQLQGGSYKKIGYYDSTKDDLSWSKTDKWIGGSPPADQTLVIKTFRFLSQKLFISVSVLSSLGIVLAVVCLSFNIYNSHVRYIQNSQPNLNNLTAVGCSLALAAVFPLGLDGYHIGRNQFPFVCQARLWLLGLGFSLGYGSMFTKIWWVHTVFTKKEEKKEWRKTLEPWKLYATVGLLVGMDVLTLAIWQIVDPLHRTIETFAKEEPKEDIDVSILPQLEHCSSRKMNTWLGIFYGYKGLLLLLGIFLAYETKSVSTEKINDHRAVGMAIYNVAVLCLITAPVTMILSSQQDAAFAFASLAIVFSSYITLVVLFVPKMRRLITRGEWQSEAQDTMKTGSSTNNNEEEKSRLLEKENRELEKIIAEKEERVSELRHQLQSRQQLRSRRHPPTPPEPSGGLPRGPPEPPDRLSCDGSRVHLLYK
T1 sequence (O75899 42-941): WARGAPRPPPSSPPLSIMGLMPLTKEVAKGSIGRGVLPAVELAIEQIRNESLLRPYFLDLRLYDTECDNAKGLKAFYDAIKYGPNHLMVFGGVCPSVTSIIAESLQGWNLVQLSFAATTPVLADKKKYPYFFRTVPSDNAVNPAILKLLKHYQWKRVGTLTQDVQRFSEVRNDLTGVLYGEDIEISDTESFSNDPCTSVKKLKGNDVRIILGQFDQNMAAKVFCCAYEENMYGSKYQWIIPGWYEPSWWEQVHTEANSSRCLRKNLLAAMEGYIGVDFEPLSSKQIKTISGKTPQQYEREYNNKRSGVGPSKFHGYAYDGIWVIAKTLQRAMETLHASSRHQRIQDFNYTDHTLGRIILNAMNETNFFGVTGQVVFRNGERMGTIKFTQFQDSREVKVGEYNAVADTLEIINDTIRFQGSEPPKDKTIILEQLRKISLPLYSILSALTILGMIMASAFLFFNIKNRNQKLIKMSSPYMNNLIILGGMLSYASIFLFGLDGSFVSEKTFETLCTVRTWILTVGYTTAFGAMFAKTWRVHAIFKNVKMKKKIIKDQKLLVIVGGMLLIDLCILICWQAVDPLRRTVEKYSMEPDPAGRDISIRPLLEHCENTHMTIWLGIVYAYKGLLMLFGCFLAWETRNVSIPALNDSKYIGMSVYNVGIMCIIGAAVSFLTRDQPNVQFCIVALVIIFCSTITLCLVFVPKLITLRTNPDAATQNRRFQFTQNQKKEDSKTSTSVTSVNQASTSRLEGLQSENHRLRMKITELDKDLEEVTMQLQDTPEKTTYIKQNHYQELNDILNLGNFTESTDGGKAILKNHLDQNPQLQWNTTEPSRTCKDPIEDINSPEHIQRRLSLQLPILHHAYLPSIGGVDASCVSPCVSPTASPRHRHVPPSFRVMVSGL
Description: Intracellular Ca^2+ Mobilization Assay
The Chinese Hamster Ovary (CHO) cells stably expressing human GABABR1aR^2a and Gα16 were seeded at 5×10^4 cells/well in the poly-D-lysine treated, 96-well, black/clear-bottomed plates (BD Biosciences, Palo Alto, Calif.). 24 h later, the cells were loaded for 90 min at 37° C. with 4 μM Flou-4 acetoxymethyl ester (Catalog No. F-14202, Molecular Probes, Eugene, Oreg.) in loading buffer (1×HBSS, 20 mM HEPES, 2.5 mM Probenecid). Hanks' Balanced Salt Solution (HBSS) (10×) (catalog No. 14065-049) and HEPES (1M) (catalog No. 15630-056) were purchased from Invitrogen, Carlsbad, Calif. Probenecid (250 mM) (catalog No. P8761) was from Sigma, Buchs, Switzerland. The cells were washed five times with loading buffer to remove excess dye and intracellular calcium mobilization, [Ca^2+ ]i were measured using a Fluorometric Imaging Plate Reader (FLIPR, Molecular Devices, Menlo Park, Calif.) as described previously (Porter et al., Br. J. Pharmacol., 128, 13-20, 1999). The enhancers were applied 15 min before the application of the GABA. For GABA shift assay, concentration-response curves of GABA (0.0003-30 μM) were determined in the absence and presence of 10 μM enhancer. The GABA-shift is defined as Log [EC50 (GABA+10 μM enhancer)/EC50 (GABA alone)]. The % maximum enhancing effect (% Emax) potency (EC50 value) of each enhancer was determined from concentration-response curve of the enhancer (0.001-30 μM) in the presence of 10 nM (GABA) (EC10). Responses were measured as peak increase in fluorescence minus basal, normalized to the maximal stimulatory effect induced by 10 μM GABA alone (considered 100%) and 10 nM GABA alone (considered 0%). The data were fitted with the equation Y=100+(Max −100)/(1+(EC50/[drug])^n) where Max is the maximum effect, EC50 the concentration eliciting a half-maximum effect and n the Hill slope.

[3] = passive avoidance behavioral test in mice and rats; cited from earlier work
[4] = elevated plus maze (rat), elevated zero maze (mice and rats), stress-induced hyperthermia (mice); cited from earlier work

Structure (SMILES) | GABA shift Log [EC50(GABA + 10 μM cp)/EC50(GABA alone)] (human GABABR1aR2a) | Emax (human GABABR1aR2a) | EC50 (human GABABR1aR2a) | other results
NCC(CC(=O)O)c1ccc(Cl)cc1 (stereo not drawn) [Baclofen, β-chlorophenyl GABA] | – | – | – | side effects (spontaneous locomotor activity, rotarod, body temperature, traction test) ([1]; 2.5-15 mg/kg): showed these side effects
CC(C)(CO)Cc1cc(C(C)(C)C)c(O)c(C(C)(C)C)c1 [CGP7930, 2,6-di-tert-butyl-4-(3-hydroxy-2,2-dimethyl-propyl)-phenol] | – | – | – | decreasing cocaine self-administration [2]: effective
CCCCCCSc1nc(C)cc(CN2CCOCC2)n1 [Example 1, 4-(2-Hexylsulfanyl-6-methyl-pyrimidin-4-ylmethyl)-morpholine] | −0.75 | 46% | 2.2 µM | –
CCCCCSc1nc(C)cc(CN2CCOCC2)n1 [Example 2, 4-(6-Methyl-2-pentylsulfanyl-pyrimidin-4-ylmethyl)-morpholine] | −0.55 | 52% | 1.7 µM | –
Cc1cc(CN2CCOCC2)nc(SCc2ccc(C(C)(C)C)cc2)n1 [Example 11, 4-[2-(4-tert-Butyl-benzylsulfanyl)-6-methyl-pyrimidin-4-ylmethyl]-morpholine] | −0.60 | 41% | 4.2 µM | –
CCCCCCSc1nc(C)cc(CN2CCCC2)n1 [Example 16, 2-Hexylsulfanyl-4-methyl-6-pyrrolidin-1-ylmethyl-pyrimidine] | −0.50 | 48% | 8.5 µM | –
CCCCCCSc1nc(C)cc(CN2CCCCC2C)n1 (stereo not drawn) [Example 31, 2-Hexylsulfanyl-4-methyl-6-(2-methyl-piperidin-1-ylmethyl)-pyrimidine] | −0.69 | 60% | 9.6 µM | –
CCCCCCSc1nc(C)cc(CN2C[C@@H]3C[C@@H](C2)c2cccc(=O)n2C3)n1 [Example 35, (1S,5S)-3-(2-Hexylsulfanyl-6-methyl-pyrimidin-4-ylmethyl)-1,2,3,4,5,6-hexahydro-1,5-methano-pyrido [1,2-a][1,5]diazocin-8-one] | −0.92 | 62% | 1.8 µM | –
CCCCCCSc1nc(C)cc(CN2C(C)CCCC2C)n1 (stereo not drawn) [Example 37, 4-(2,6-Dimethyl-piperidin-1-ylmethyl)-2-hexylsulfanyl-6-methyl-pyrimidine] | −0.76 | 74.2% | 8.2 µM | –
CCCCCCSc1nc(C)cc(CN2[C@H](C)CCC[C@@H]2C)n1 [Example 38, 4-(cis-2,6-Dimethyl-piperidin-1-ylmethyl)-2-hexylsulfanyl-6-methyl-pyrimidine] | −0.71 | 61% | 6.3 µM | –
CCCCCCSc1nc(CN2CCOCC2)cc(C(F)(F)F)n1 [Example 39, 4-(2-Hexylsulfanyl-6-trifluoromethyl-pyrimidin-4-ylmethyl)-morpholine] | −0.48 | 62% | 6.4 µM | –
CCCCCCSc1nc(CC)cc(CN2CCOCC2)n1 [Example 41, 4-(2-Hexylsulfanyl-6-ethyl-pyrimidin-4-ylmethyl)-morpholine] | −0.86 | 60% | 4.1 µM | –
CCCCCCSc1nc(C)cc(C(C)N2CCOCC2)n1 (stereo not drawn) [Example 43, 4-[1-(2-Hexylsulfanyl-6-methyl-pyrimidin-4-yl)-ethyl]-morpholine] | −0.70 | 49% | 4.4 µM | –
CSc1nc(NC2CCCC2)c([N+](=O)[O-])c(NC2CCCC2)n1 [GS39783, N,N_-dicyclopentyl-2-methylsulfanyl-5-nitro-pyrimidine-4,6-diamine] | – | – | – | effect on cognition performance [3]: did not have any effect; anxiolytic-like effects [4]: exhibited anxiolytic-like effects; effect on spontaneous locomotor activity, rotarod, body temperature and traction test ([1]; 0.1-200 mg/kg): no effect; decreasing cocaine self-administration [2]: effective
